Results from patent US20190160035A1, “METHOD OF TREATMENT” (QBIOTICS LIMITED, priority 2016, published 2019).

Assay: Example 2: serum biochemistry and haematology
Format: in vivo, dogs
Excerpt: Individual blood samples were collected from the dogs into gel separated plain vacuettes at intervals outlined in Table 12. Plain blood samples were submitted on ice bricks by express courier to the local IDEXX laboratory which performed detailed biochemical analysis. Analysis included creatinine, protein, albumin, globulin, alkaline phosphatase, AST, gamma GT, creatine kinase, cholesterol, magnesium, calcium, phosphate, sodium, potassium, chloride, ALT, glucose, urea, amylase, bilirubin and triglycerides.
Individual blood samples were collected from the dogs into anti-coagulated (EDTA and sodium citrate) vacutainers at intervals outlined in Table 12. Blood samples were then be submitted on ice bricks by express courier to the local IDEXX laboratory, which performed detailed haematological analysis. Analysis included red blood cell count, white cell count, packed cell volume, mean corpuscular volume, mean corpuscular haemoglobin, mean corpuscular haemoglobin concentration, white cell differential count, platelets, haemoglobin, reticulocytes, PT and APTT.

SMILES: C/C=C(\C)C(=O)O[C@@H]1[C@@H](C)[C@@]2(O)[C@H]([C@@H]3C(C)(C)[C@]13OC(=O)[C@@H](C)CC)[C@@H]1O[C@]1(CO)[C@@H](O)[C@]1(O)C(=O)C(C)=C[C@H]12 [Compound 1, 12-tigloyl-13-(2-methylbutanoyl)-6,7-epoxy-4,5,9,12,13,20-hexahydroxy-1-tigliaen-3-one]
- Anaemia during the course of the study (all cohorts): No dog exhibited anaemia
- Bleeding disorder during the course of the study (all cohorts): No dog exhibited a bleeding disorder
- Haematology observations (all cohorts): fairly unremarkable
- Number of dogs with slightly elevated reticulocyte counts post treatment (all cohorts (27 dogs)): 7
- Serum biochemistry observations (all cohorts, exceptions dogs GCV-204 (AST, CK) and NVC-307 (transient AST, ALT)): fairly unremarkable
- Number of dogs with slightly lower platelet counts post treatment (platelets described as ‘clumping’): 5
